In data set [1] the target is T1, human NPFFR1 (hNPFFR1) receptor (Homo sapiens, UniProt Q9GZQ6).
T1 construct: expressed in transfected cells; host or cells: HEK-293 T cells, transient co-transfection
As to the kind of experiment: Human NPFFR1 evaluation using BRET biosensors in HEK-293 T cells. As to conditions: hNPFFR1 in HEK-293 T cells, stimulated by EC80 RFRP-3, read-out: IC50 of antagonist activity. Type of data set: cell-based. The method, then:
Compounds of the present invention were tested successively for their agonist and antagonist activities on human NPFFR1 (hNPFFR1) receptor transiently over-expressed in HEK-293 T cells. Compounds exert agonist activity if, by themselves in absence of neuropeptide RFRP-3 (also named NPVF) they activate hNPFFR1; and they exert antagonist activity if they decrease the action of RFRP-3 on the receptor. The assay used to measure compound activity is based on BRET (Bioluminescence Resonance Energy Transfer) biosensors and is designed to monitor the plasma membrane translocation of protein that interacts with specific Ga subunit. The specific effector (luciferase tagged: BRET donor) recruited at the membrane will be in close proximity to a plasma membrane anchor (GFP tagged: BRET acceptor) to induce a BRET signal (Ramdan et al, 2006, Chapter 5, Current Protocols in Neuroscience).
HEK-293 T cells are maintained in Dulbecco's Modified Eagle's Medium supplemented with 10% Foetal Calf Serum, 1% Penicillin/Streptomycin at 37° C./5% CO2. Cells are co-transfected using polyethylenimine (25 kDa linear) with four DNA plasmids encoding; hNPFFR1, GαoB, a Gi family specific intracellular effector fused to luciferase (BRET donor), a plasma membrane effector fused to GFP (BRET acceptor). After transfection, cells are cultured for 48 h at 37° C./5% CO2.
Receptor activity is detected by changes in BRET signal.
On the day of the assay, cells are detached using trypsin 0.05%, resuspended in assay buffer (1.8 mM CaCl2, 1 mM MgCl2, 2.7 mM KCl, 137 mM NaCl, 0.4 mM NaH2PO4, 5.5 mM D-Glucose, 11.9 mM NaHCO3, 25 mM Hepes) and seeded in 384 well plate at a density of 20,000 cells per well. Then, plates are equilibrated 3.5 hours at 37° C. before adding compounds.
Compounds and luciferase substrate are added to the cells using an automated device (Freedom Evo®, Tecan) and BRET readings are collected on EnVision (PerkinElmer) with specific filters (410 nm BW 80 nm, 515 nm BW 30 nm).
Agonist and antagonist activities of compounds are consecutively evaluated on the same cell plate. Agonist activity is first measured after 10 minutes incubation with compound alone on the cells. Then, cells are stimulated by an EC80 RFRP-3 concentration and luminescence is recorded for additional 10 minutes. EC80 RFRP-3 concentration is the concentration giving 80% of the maximal RFRP-3 response. Agonist or antagonist activities are evaluated in comparison to basal signals evoked by assay buffer or EC80 RFRP-3 alone, respectively.
For IC50 determination, a dose-response test is performed using 20 concentrations (ranging over 6 logs) of each compound. Dose-response curves are fitted using the sigmoidal dose-response (variable slope) analysis in GraphPad Prism software (GraphPad Software) and IC50 of antagonist activity is calculated. Dose-response experiments are performed in duplicate, in two independent experiments.
In general terms: Bioluminescence resonance energy transfer reports proximity on the nanometre scale.

The target of a further data set is T2, hNPFFR1 (Homo sapiens, UniProt Q9GZQ6).
T2 construct: expressed in transfected cells; membranes
As to the kind of experiment: Radioligand binding competition, membranes from CHO cells expressing hNPFFR1. Conditions: 0.015 nM [D-Tyr1[125I], N-MePhe3]-NPFF, 1 hr at 25° C.; for Ki: read-out: NPFF1-R Ki. The method, then:
(§1) Competition experiments with membranes from CHO cells stably expressing hNPFFR1 and hNPFFR2 were performed essentially as described in Elhabazi, K., et al. Neuropharmacology, 2013. 75C, 164-171., Briefly, hNPFFR1 or hNPFFR2 membranes (5 to 10 μg of proteins) were incubated (1 hr at 25° C.; 0.25 mL total volume) with 0.015 nM [D-Tyr1[125I], N-MePhe3]-NPFF (Hartmann Analytic GmbH) in 50 mM HEPES (pH 7.4), 1 mM CaCl2, 1 mM MgCl2 and 0.1% bovine serum albumin. Non-specific binding was determined in the presence of 10 μM RFRP-3. Incubation was terminated by rapid filtration through a 96-well GF/B unifilter apparatus (Perkin Elmer Life and Analytical Sciences, Courtaboeuf, France). Unifilters were washed five times with binding buffer, then dried for 1 h at 65° C. After addition of 40 μL scintillation cocktail (Microscint-O, Perkin Elmer) per well, bound radioactivity was determined on a TopCount scintillation counter (Perkin Elmer).

The next data set addresses T3, hNPFFR2 (Homo sapiens, UniProt Q9Y5X5).
T3 construct: expressed in transfected cells; membranes
As to the kind of experiment: Radioligand binding competition, membranes from CHO cells expressing hNPFFR2. Conditions: 0.015 nM [D-Tyr1[125I], N-MePhe3]-NPFF, 1 hr at 25° C.; for Ki: read-out: NPFF2-R Ki. Here is the method: as §1

In general, IC50 refers to the midpoint of a concentration-inhibition curve. In general, Ki refers to the equilibrium dissociation constant of an inhibitor or competing ligand from its target. A word on the melting point: it is the temperature of the solid-liquid transition.

T1 sequence (Q9GZQ6 whole entry): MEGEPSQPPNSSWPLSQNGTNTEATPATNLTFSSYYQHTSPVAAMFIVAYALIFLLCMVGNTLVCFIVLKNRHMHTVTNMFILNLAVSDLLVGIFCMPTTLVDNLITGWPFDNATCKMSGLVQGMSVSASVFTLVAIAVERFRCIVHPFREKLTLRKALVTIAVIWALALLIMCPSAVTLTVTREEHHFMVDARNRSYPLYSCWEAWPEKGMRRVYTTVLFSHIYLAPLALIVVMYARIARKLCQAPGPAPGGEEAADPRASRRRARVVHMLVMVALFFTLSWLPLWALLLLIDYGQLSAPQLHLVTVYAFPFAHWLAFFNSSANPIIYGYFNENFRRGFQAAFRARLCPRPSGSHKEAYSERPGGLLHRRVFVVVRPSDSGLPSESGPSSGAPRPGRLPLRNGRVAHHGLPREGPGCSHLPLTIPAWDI
T2 sequence (Q9GZQ6 whole entry): as above
T3 sequence (Q9Y5X5 whole entry): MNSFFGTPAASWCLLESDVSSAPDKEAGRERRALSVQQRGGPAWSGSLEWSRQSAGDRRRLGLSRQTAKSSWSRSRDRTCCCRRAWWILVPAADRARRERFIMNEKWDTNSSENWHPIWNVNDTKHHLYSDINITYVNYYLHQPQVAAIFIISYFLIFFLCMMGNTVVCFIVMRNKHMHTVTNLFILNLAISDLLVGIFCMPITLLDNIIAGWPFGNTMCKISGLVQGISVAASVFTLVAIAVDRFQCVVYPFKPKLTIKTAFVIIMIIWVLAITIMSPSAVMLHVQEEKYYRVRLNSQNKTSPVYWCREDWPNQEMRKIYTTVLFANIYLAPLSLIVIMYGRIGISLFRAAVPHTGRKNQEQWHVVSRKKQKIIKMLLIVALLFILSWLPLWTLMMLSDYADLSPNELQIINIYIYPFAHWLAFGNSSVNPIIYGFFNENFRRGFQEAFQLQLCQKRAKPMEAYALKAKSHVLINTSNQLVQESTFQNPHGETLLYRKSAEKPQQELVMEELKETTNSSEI

Regarding `CC(C)Oc1ccccc1-c1ccc(N)nc1N` [Compound 2f, 3-(2-isopropoxyphenyl)pyridine-2,6-diamine], the IC50 in data set [1] fell in the range of 100 to 500 nM. For the same compound, the figures for the Ki at hNPFFR1 and on hNPFFR2 were 11.3 nM and 2100 nM, respectively.
Regarding `Nc1ccc(-c2cccc(Cl)c2)c(N)n1` [Compound 1h, 3-(3-chlorophenyl)pyridine-2,6-diamine], the concentration for half-maximal inhibition (IC50) in data set [1] fell in the range of 500 to 1000 nM. Moreover, the values for the Ki at hNPFFR1 and at hNPFFR2 were 90 nM and 300 nM, respectively.
For the compound `CCc1cc(-c2cccc(Cl)c2Cl)c(N)nc1N` [Compound 9b, 3-(2,3-dichlorophenyl)-5-ethylpyridine-2,6-diamine], the Ki is 1090 nM at hNPFFR1 and 3300 nM on hNPFFR2.
Take `COCc1ccccc1-c1ccc(N)nc1N` [Compound 1g, 3-(2-(methoxymethyl)phenyl) pyridine-2,6-diamine]: the 50% inhibitory concentration (IC50) in data set [1] fell in the range of 500 to 1000 nM. The Ki on hNPFFR1 stood at 58 nM; at hNPFFR2, 1200 nM.
The like results for `Nc1ccc(-c2cccc(Cl)c2Cl)cn1` [Compound 6a, 5-(2,3-dichlorophenyl)pyridin-2-amine] were, in that order, more than 1000 nM, 577 nM and 4200 nM.
As to `Nc1ccc(-c2cccc(Cl)c2Cl)c(N2CCCCC2)n1` [Compound 5i, 5-(2,3-dichlorophenyl)-6-(piperidin-1-yl)pyridin-2-amine], the results for the Ki on hNPFFR1 and at hNPFFR2 were 440 nM and 6300 nM, respectively.
For `Nc1ccc(-c2ccc(Cl)cc2)c(N)n1` [Compound 1i, 3-(4-chlorophenyl)pyridine-2,6-diamine], the IC50 in data set [1] is more than 1000 nM. Besides, the Ki on hNPFFR1 turned out to be 786 nM; at hNPFFR2 it was 8800 nM.
Taken in the same sequence, the figures for `COc1ccccc1-c1ccc(N)nc1C1CC1` [Compound 6i, 6-cyclopropyl-5-(2-methoxyphenyl)pyridin-2-amine] were 500 to 1000 nM, 31 nM and 1400 nM.
Taken in the same sequence, the figures for `Nc1ccc(-c2cc(Cl)ccc2Cl)c(N)n1` [Compound 1l, 3-(2,5-dichlorophenyl) pyridine-2,6-diamine] were 100 to 500 nM, 335 nM and 26700 nM.
Regarding `Nc1ccc(-c2ccccc2Cl)c(N)n1` [Compound 1b, 3-(2-chlorophenyl)pyridine-2,6-diamine], the IC50 in data set [1] was in the range of 500 to 1000 nM. Besides, the Ki was found to be 39 nM on hNPFFR1 and 1300 nM on hNPFFR2.
With `Nc1ccc(-c2cc(Cl)cc(Cl)c2)c(N)n1` [Compound 1o, 3-(3,5-dichlorophenyl) pyridine-2,6-diamine], the half-maximal inhibitory concentration (IC50) in data set [1] is more than 1000 nM. In addition, the inhibition constant Ki at hNPFFR1 was approximately 500 nM; at hNPFFR2, approximately 5000 nM.
Turning to `Cc1c(Cl)cccc1-c1ccc(N)nc1N` [Compound 1q, 3-(3-chloro-2-methylphenyl) pyridine-2,6-diamine], the Ki at hNPFFR1 stood at 112 nM; on hNPFFR2, 7300 nM.
Turning to “3-(2-methoxyethoxyphenyl)pyridine-2,6-diamine [Compound 2h]”, the Ki on hNPFFR1 came to 26 nM; on hNPFFR2, 35700 nM.
Take `Nc1ccc(-c2cccc(Cl)c2Cl)c(NCCc2ccccc2)n1` [Compound 5f, 3-(2,3-dichlorophenyl)-N2-phenethylpyridine-2,6-diamine]: the Ki on hNPFFR1 turned out to be 424 nM; at hNPFFR2, 800 nM.
The like results for `Nc1nc(N)c(-c2cccc(Cl)c2Cl)cc1F` [Compound 9a, 3-(2,3-dichlorophenyl)-5-fluoropyridine-2,6-diamine] were, in that order, 3240 nM and 1800 nM.
Turning to `CCCCNc1nc(N)ccc1-c1cccc(Cl)c1Cl` [Compound 5c, N2-butyl-3-(2,3-dichlorophenyl)pyridine-2,6-diamine], the Ki at hNPFFR1 came to 416 nM; at hNPFFR2, 6900 nM.
Turning to `Nc1ccc(-c2ccoc2)c(N)n1` [Compound 3b, 3-(furan-3-yl)pyridine-2,6-diamine], at hNPFFR1, the “NPFF1-R Ki (nM)” value was “n.s”. The “NPFF2-R Ki (nM)” value at hNPFFR2 is reported as “n.s”.
Regarding `Nc1ccc(-c2cc3ccccc3o2)c(N)n1` [Compound 3c, 3-(benzofuran-2-yl) pyridine-2,6-diamine], the values for the Ki at hNPFFR1 and at hNPFFR2 were 524 nM and 34000 nM, respectively.
For the compound “4′-methyl-[3,4′-bipyridine]-2,6-diamine [Compound 3f]”, the Ki at hNPFFR1 was 515 nM. Moreover, the “NPFF2-R Ki (nM)” value at hNPFFR2 is recorded as “ns”.
As to `Nc1ccc(-c2ccco2)c(N)n1` [Compound 3a, 3-(furan-2-yl)pyridine-2,6-diamine], the figures for the Ki on hNPFFR1 and at hNPFFR2 were 5080 nM and 106000 nM, respectively.
On to `COc1nc(N)ccc1-c1cccc(Cl)c1Cl` [Compound 7a, 5-(2,3-dichlorophenyl)-6-methoxypyridin-2-amine], for which the “NPFF1-R Ki (nM)” value on hNPFFR1 is “ns”. Further, the “NPFF2-R Ki (nM)” value on hNPFFR2 was “ns”.
On to `COCCNc1nc(N)ccc1-c1cccc(Cl)c1Cl` [Compound 5g, 3-(2,3-dichlorophenyl)-N2-(2-methoxyethyl)pyridine-2,6-diamine], for which the Ki on hNPFFR1 was 481 nM. Moreover, on hNPFFR2, the “NPFF2-R Ki (nM)” value is “ns”.
“3-(2-(piperidin-1-yl)ethoxy)pyridine-2,6-diamine [Compound 2j]”: the Ki worked out at 33 nM at hNPFFR1 and 450 nM on hNPFFR2.
The like results for `Nc1ccc(CCc2ccccc2)c(N)n1` [Compound 11a, 3-phenethylpyridine-2,6-diamine] were, in that order, 189 nM and 5400 nM.
Consider `Nc1ccc(-c2c(Cl)cccc2Cl)c(N)n1` [Compound 1m, 3-(2,6-dichlorophenyl) pyridine-2,6-diamine], for which the Ki at hNPFFR1 is 94 nM; on hNPFFR2, more than 10000 nM.
The like results for “5-(2-methoxyphenyl)-6-(trifluoromethoxy)pyridin-2-amine [Compound 6f]” were, in that order, more than 5000 nM and more than 10000 nM.
In turn, `Cc1ccc(Cl)cc1-c1ccc(N)nc1N` [Compound 56, 3-(5-Chloro-2-methyl-phenyl)-pyridine-2,6-diamine] came in with a melting point of 95 to 97 °C. For the same compound, the IC50 in data set [1] fell in the range of 100 to 500 nM.
For `COc1cc(N)nc(N)c1-c1cccc(Cl)c1Cl` [Compound 8a, 3-(2,3-dichlorophenyl)-4-methoxypyridine-2,6-diamine], the Ki is 4080 nM at hNPFFR1 and more than 50000 nM at hNPFFR2.
Regarding `Cl.N#Cc1ccccc1-c1ccc(N)nc1N` [Compound 96, 2-(2,6-diamino-3-pyridyl)benzonitrile], the melting point is more than 250 °C. In addition, the IC50 in data set [1] lay in the range of 100 to 500 nM.
Take `Nc1ccc(-c2cccc(Cl)c2Cl)c(NCCN2CCCCC2)n1` [Compound 5h, 3-(2,3-dichlorophenyl)-N2-(2-(piperidin-1-yl)ethyl)pyridine-2,6-diamine]: the Ki was 1920 nM on hNPFFR1 and 3200 nM at hNPFFR2.
Take `CC(C)Oc1cc(F)ccc1-c1ccc(N)nc1N` [Compound 53, 3-(4-Fluoro-2-isopropoxy-phenyl)-pyridine-2,6-diamine]: the melting point was 59 to 63 °C. Besides, the half-inhibitory concentration (IC50) in data set [1] fell in the range of 100 to 500 nM.

(Values after US20210221784A1, “COMPOUNDS AND COMPOSITIONS FOR THE TREATMENT OF PAIN” (Université de Strasbourg, priority 2018, published 2021).)
